Experimental findings from patent US7700657B2, “Vitamin D analogs” (Galderma Research & Development, priority 2001, dated 2010) are described below.

For one test, the target named is T1, human VDR receptor (Homo sapiens, UniProt P11473).
T1 construct: expressed in transfected cells; host or cells: HeLa
T1 sequence (P11473 1-427): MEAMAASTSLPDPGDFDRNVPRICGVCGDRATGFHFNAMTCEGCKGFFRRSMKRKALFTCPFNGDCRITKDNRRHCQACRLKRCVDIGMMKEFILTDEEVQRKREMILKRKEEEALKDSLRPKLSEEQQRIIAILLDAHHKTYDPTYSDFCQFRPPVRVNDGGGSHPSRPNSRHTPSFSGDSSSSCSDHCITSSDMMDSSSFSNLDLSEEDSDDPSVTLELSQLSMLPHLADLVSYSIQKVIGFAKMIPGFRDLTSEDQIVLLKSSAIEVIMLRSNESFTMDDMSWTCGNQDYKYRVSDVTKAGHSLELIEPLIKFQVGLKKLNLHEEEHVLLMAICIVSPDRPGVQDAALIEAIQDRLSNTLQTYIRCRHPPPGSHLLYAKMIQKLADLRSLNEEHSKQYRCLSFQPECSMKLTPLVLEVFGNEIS
Nature of the test: Transactivation potential: VDR agonist activity, HeLa cotransfection with p240Hase-CAT reporter. The class given is cell-based. Conditions: dose giving 50% of maximum activity, HeLa cells, 18 hours treatment. From the text:
By way of example, the VDR agonist activity can be tested on the HeLa cell line by cotransfection of an expression vector for the human VDR receptor and of the reporter plasmid p240Hase-CAT. The agonist activity can be characterized in this cotransfection system by the determination of the dose necessary to obtain 50% of the maximum activity of the product (AC50). The detail of the protocol of this test as well as the results obtained with the compounds according to the invention are described in example 7 of the present application.
The VDR agonist activity can be tested on the HeLa cell line, by cotransfection of an expression vector of the human VDR receptor and of the p240Hase-CAT reporter plasmid which contains the region −1399 to +76 of the rat 24-hydroxylase promoter, cloned upstream of the phase coding for the chloramphenicol acetyltransferase (CAT) gene. 18 hours after cotransfection, the test product is added to the medium. After treatment for 18 hours, the measurement of the CAT activity of the cell lysates is carried out by means of an Elisa test (Enzyme Linked Immuno Sorbent Essay, test marketed by Roche Molecular Biochemicals). The agonist activity can be characterized in this cotransfection system by the determination of the dose necessary in order to obtain 50% of the maximum activity of the product (AC50).

The test system of test [1] is normal human keratinocytes. The experiment in a line: Inhibition of proliferation of normal human keratinocytes (BrdU incorporation). The class given is cell-based. Conditions: 5 days culture. As to the method:
The biological properties analogous to vitamin D can likewise be measured by the capacity of the product to inhibit the proliferation of normal human keratinocytes (NHK in culture). The product is added to NHK cultured under conditions favoring the proliferative state. The product is left in contact with the cells for five days. The number of proliferative cells is measured by incorporation of bromodeoxyuridine (BRdU) into the DNA. The protocol of this test as well as the results obtained with the compounds according to the invention are described in example 8 of the present application.
It is known that 1,25-dihydroxyvitamin D3, called calcitriol and corresponding to natural vitamin D, inhibits the proliferation of human keratinocytes in culture. The method used is the following: the normal human keratinocytes are inoculated at low density into a 24-well plate. After 4 hours, the compounds to be tested are added to the culture medium. After culturing for 5 days, the proliferation of the keratinocytes is determined by incorporation of 5-bromo-2′ deoxyuridine (BrdU) in the DNA. The quantity of BrdU incorporated is then quantified by using the Elisa test (Enzyme Linked Immuno Sorbent Essay, test marketed by Roche Molecular Biochemicals).
The inhibitory effect on the proliferation of the keratinocytes of the compounds according to the invention and of the calcitriol used as a reference compound is summarized in table II which follows.

In a further test the test system is 24-hydroxylase. The experiment in a line: In vivo induction of 24-hydroxylase mRNA in SKH mice after single topical application. To be noted: for Induction in % vs Induction Calcitriol Tested at 0.01%: topical, 8 hours; for MRNA EXPRESSION OF 24-HYDROXYLASE Induction Factor Versus Ethanol: 50 μl, epidermis 8 hours after application. The source says:
The agonist activity on vitamin D receptors of the compounds of the invention can be likewise evaluated “in vivo” by induction of 24-hydroxylase in SKH mice. (Kang et. al., Journal of Investigative Dermatology, 1997, 108(4), 513-518). The test protocol used as well as the results obtained with the compounds according to the invention are described in example 10 of the present application. 1]:
Consequently, the agonist activity on receptors of vitamin D of the compounds of the invention can be evaluated “in vivo” by induction of 24-hydroxylase in SKH mice.
The method used is the following: […] mice receive a single topical application of a compound to be tested in solution in ethanol at increasing concentrations. A volume of 50 μl of the product to be tested or of the vehicle alone is applied on the back of the mice with the aid of a pipette.
Other SKH mice receive a single topical application of calcitriol in solution in ethanol at increasing concentrations. A volume of 50 μl of the product to be tested or of the vehicle alone is applied on the back of the mice with the aid of a pipette.
8 hours after topical application, the mice are euthanized, the treated skin is removed and the epidermidis is separated from the dermis. The quantification of the MRNA of the 24-Hydroxylase is carried out by semiquantitative PCR. The results are standardized with respect to the expression of the mRNA of GAPDH and the values for the different concentrations of calcitriol tested and, for the different compounds of the invention tested, are expressed as an induction factor with respect to calcitriol.

Test [2] relates to HL60 promyelocytic leukemia cells. Nature of the test: Induction of differentiation of HL60 cells (NBT reduction). In kind it is cell-based. Conditions: 4 days culture, NBT-positive cells, read-out: Activation of Differentiation AC 50. From the text: The biological properties analogous to vitamin D can likewise be measured by the capacity of the product to induce the differentiation of HL60 promyelocytic leukemia cells. The protocol of this test as well as the results obtained with the compounds according to the invention are described in example 9 of the present application.
Calcitriol induces the differentiation of promyelocytic leukemia cells (HL60) in monocytes/macrophages. This differentiation inductor effect is a well-characterized marker of cellular vitamin D activity. One of the most important antimicrobial products of macrophages is hydrogen peroxide, which can be analyzed experimentally by the reduction of NBT (Nitroblue Tetrazolium).
The method used is the following: The HL60 cells are inoculated into 6-well plates and then treated immediately with the compounds to be tested. After 4 days in culture, the cells are incubated with phorbol TPA ester and NBT for a short period and the differentiated cells, i.e., positive to NBT, are counted.

Where [3] appears, read: compound tested at 0.01% (weight/volume).

Like-named read-outs stand apart in the source and are kept apart here.

As for `CC/C(=C\C#CC(O)(C(F)(F)F)C(F)(F)F)c1cccc(OCc2ccc(CO)c(CO)c2)c1` [Example 2, (E)-6-[3-{3,4-Bis-hydroxymethylbenzyloxy)phenyl]-1,1,1-trifluoro-2-tifluoromethyloct-5-en-3-yn-2-ol], the AC50 on human VDR receptor came out at 77 nM. Besides, inhibition in test [1] (Keratinocyte, 120 h) was half-maximal at 153 nM (IC50). Besides, in the test with 24-hydroxylase (setting [3]), the “Induction in % vs Induction Calcitriol Tested at 0.01%” value was 58%.

In the case of `CC/C(=C\C#CC(O)(C(F)(F)F)C(F)(F)F)c1cccc(CCc2ccc(CO)c(CO)c2)c1` [Example 4, (E)-6-{3-[2-(3,4-Bis-hydroxymethylphenyl)ethyl]phenyl}-1,1,1-trifluoro-2-trifluoromethyloct-5-en-3-yn-2-ol], the AC50 at human VDR receptor was 16 nM. The compound further had a concentration for half-maximal inhibition (IC50) in test [1] (Keratinocyte, 120 h) of 29 nM. For the same compound, the “Induction in % vs Induction Calcitriol Tested at 0.01%” value in the test with 24-hydroxylase (setting [3]) came to 89%.

Take `CC/C(=C\C=C\C(O)(C(F)(F)F)C(F)(F)F)c1cccc(CCc2ccc(CO)c(CO)c2)c1` [Example 5, (3E,5E)-6-{3-[2-(3,4-Bis-hydroxymethylphenyl)ethyl]-phenyl}-1,1,1-trifluoro-2-trifluoromethylocta-3,5-dien-2-ol]: the AC50 in test [2] (Homo sapiens, HL-60, 96 h) was 5 nM; at human VDR receptor, 3 nM. For the same compound, half-maximal inhibition in test [1] (Keratinocyte, 120 h) (IC50) required 8 nM. In the test with 24-hydroxylase (compound tested at 0.0003% (weight/volume)), the “Induction in % vs Induction Calcitriol Tested at 0.01%” value is reported as 106%.

`CC/C(=C\C=C\C(O)(C(F)(F)F)C(F)(F)F)c1cccc(OCc2ccc(CO)c(CO)c2)c1` [Example 3, (3E,5E)-6-[3-(3,4-Bis-hydroxymethylbenzyloxy)pheny]-1,1,1-trifluoro-2 trifluoromethylocta-3,5-dien-2-ol]: the AC50 in test [2] (Homo sapiens, HL-60, 96 h) turned out to be 7 nM; at human VDR receptor it was 7 nM. The compound further gave an IC50 in test [1] (Keratinocyte, 120 h) of 35 nM. Also, in the test with 24-hydroxylase (compound tested at 0.001% (weight/volume)), the “Induction in % vs Induction Calcitriol Tested at 0.01%” value turned out to be 59%. For the same compound, in the test on 24-hydroxylase (in words), the “activity (24-hydroxylase induction) compared with calcitriol” value was “very superior”.

For the compound “1,25-dihydroxyvitamin D3 [Calcitriol, reference compound]”, the AC50 in test [2] turned out to be 7 nM. The same compound showed an IC50 in test [1] of 14 nM. Besides, the “Induction in % vs Induction Calcitriol Tested at 0.01%” value in the test on 24-hydroxylase (setting [3]) is 100%. Besides, the “MRNA EXPRESSION OF 24-HYDROXYLASE Induction Factor Versus Ethanol” value with 24-hydroxylase (topical 0.0001% (weight/volume) in ethanol) is recorded as 6.7; in the test with 24-hydroxylase (topical 0.001% (weight/volume) in ethanol), 10.3; with 24-hydroxylase (topical 0.01% (weight/volume) in ethanol) it was 20.1; in the test on 24-hydroxylase (topical 0.1% (weight/volume) in ethanol), 26.

With `CC/C(=C\C=C\C(O)(CC)CC)c1cccc(CCc2ccc(CO)c(CO)c2)c1` [Example 1, (4E,6E)-7-{3-[2-(3,4-Bis-hydroxymethylphenyl)ethyl]-phenyl}-3-ethylnona-4,6-dien-3-ol], the AC50 in test [2] (Homo sapiens, HL-60, 96 h) is 56 nM; on human VDR receptor, 39 nM. Besides, in test [1] (Keratinocyte, 120 h), half-maximal inhibition (IC50) was put at 45 nM. Further, the “Induction in % vs Induction Calcitriol Tested at 0.01%” value in the test with 24-hydroxylase (compound tested at 0.1% (weight/volume)) worked out at 108%.
